Test results published in ChEMBL document CHEMBL1159348, “S(R)-podolactone D, a new sulfoxide-containing norditerpene dilactone from Podocarpus macrophyllus var. maki” (J Nat Prod, 2003).
In brackets after ≈: the same amount, converted by molar mass.

Test system: P388
Assay: Cytotoxicity against mouse P388 cells
Type: functional, cell-based

C[S@+]([O-])C[C@](C)(O)[C@H]1OC(=O)C=C2[C@@]13O[C@@H]3[C@H]1OC(=O)[C@@]3(C)C=CC[C@@]2(C)[C@@H]13 (stereo in doubt; 2) showed an IC50 of 0.23 µg/mL (≈ 0.563 µM).
Compound C[S@+]([O-])C[C@](C)(O)[C@H]1OC(=O)C=C2[C@@]13O[C@@H]3[C@H]1OC(=O)[C@@]3(C)C=CC[C@@]2(C)[C@@H]13 (stereo in doubt; 1) has an IC50 of 0.52 µg/mL (≈ 1.27 µM).
